Test results: ChEMBL document CHEMBL5604063, “ASAP - DENV-2 NS2B-NS3 protease fluorescence dose response” (2024)
“And” between values parts separate entries of the source, which are not always exact repeats. Equal entries are not always repeated.

How the values were obtained:
Genome polyprotein [1] = molecular target: T1, Genome polyprotein (dengue virus type 2, UniProt P29990); type: functional, Thailand/16681/1984
Genome polyprotein [2] = molecular target: T1, Genome polyprotein; type: functional, Thailand/16681/1984; remark: listed apart in the source

T1 sequence (P29990 1346-1475 limits assumed): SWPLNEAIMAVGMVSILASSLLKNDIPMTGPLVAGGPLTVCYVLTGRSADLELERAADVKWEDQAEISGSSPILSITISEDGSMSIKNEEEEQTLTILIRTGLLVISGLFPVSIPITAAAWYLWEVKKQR
T1 sequence (P29990 1476-2093 limits assumed): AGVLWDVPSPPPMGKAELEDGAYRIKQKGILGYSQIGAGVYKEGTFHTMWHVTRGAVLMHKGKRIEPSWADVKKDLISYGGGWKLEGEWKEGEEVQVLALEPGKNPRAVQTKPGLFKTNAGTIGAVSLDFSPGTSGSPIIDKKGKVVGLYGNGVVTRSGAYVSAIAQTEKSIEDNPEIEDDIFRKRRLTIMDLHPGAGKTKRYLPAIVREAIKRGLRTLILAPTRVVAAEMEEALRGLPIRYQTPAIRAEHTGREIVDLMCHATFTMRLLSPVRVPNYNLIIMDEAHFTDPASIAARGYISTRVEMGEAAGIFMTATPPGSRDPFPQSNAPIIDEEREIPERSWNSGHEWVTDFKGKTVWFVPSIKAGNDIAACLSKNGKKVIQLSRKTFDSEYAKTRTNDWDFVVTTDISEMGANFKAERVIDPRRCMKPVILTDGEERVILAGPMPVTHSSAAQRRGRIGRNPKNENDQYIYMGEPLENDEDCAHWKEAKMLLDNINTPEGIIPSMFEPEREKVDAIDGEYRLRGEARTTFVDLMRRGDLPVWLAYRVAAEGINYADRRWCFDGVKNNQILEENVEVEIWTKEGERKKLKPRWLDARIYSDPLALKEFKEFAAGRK

Structure (SMILES)	IC50 (Genome polyprotein [1])	IC50 (Genome polyprotein [2])
N=C(N)NCCC[C@H](NC(=O)[C@H](Cc1ccc(CN)cc1)NC(=O)c1ccccc1)B(O)O	720 nM and 583 nM and 818 nM and 732 nM and 585 nM and < 2.49 µM (9×) and 276 nM and 270 nM and 274 nM and 310 nM and 236 nM and 572 nM and 397 nM and 474 nM and 507 nM and 265 nM	305 nM and 257 nM and 222 nM and 304 nM and 397 nM and 347 nM and 311 nM and 370 nM and 386 nM and 288 nM and 401 nM (2×) and 387 nM and 378 nM and 379 nM and 356 nM and 445 nM and 309 nM and 358 nM (2×) and 321 nM and 398 nM and 512 nM and 367 nM and 298 nM and 273 nM and 243 nM and 437 nM and 458 nM and 503 nM and 302 nM and 267 nM and 516 nM and 409 nM and 384 nM and 328 nM and 540 nM and 421 nM
O=C(Nc1cc(Cl)cc(C(=O)Nc2ccc3c(c2)CNC3)c1)OCc1ccccc1	> 99.5 µM	> 100 µM
NCc1cccc([C@@H]2C[C@H]2c2cc(Cl)cc(NC(=O)OCc3ccccc3)c2)c1	30.3 µM and 50.1 µM	> 100 µM
FC(F)(F)Oc1cc(Cl)cc2c(CN3CCC(c4cscn4)CC3)c[nH]c12	> 99.5 µM	> 100 µM
Cc1ncc(C(=O)Nc2cccc(CN)c2)cc1NC(=O)OCc1ccccc1	> 99.5 µM	> 100 µM
NCc1cccc(NC(=O)[C@@H](NC(=O)OCc2ccccc2)c2ccc(OCc3ccccc3)cc2)c1	14.2 µM	31 µM and 29.9 µM and 41.3 µM and 32.5 µM and 27.7 µM and 33.1 µM and 29.8 µM and 19 µM and 28.8 µM
NCc1cccc(NC(=O)C[C@H](NC(=O)OCc2ccccc2)c2ccc(OCc3ccccc3)c(Br)c2)c1	< 2.49 µM and 1.85 µM and 1.92 µM and 1.84 µM and 2.53 µM and 2.67 µM and 2.65 µM	8.8 µM and 6.74 µM and 4.06 µM and 4.11 µM and 9.99 µM and 4.61 µM and 3.66 µM
CCOCC(=O)N1CCC([C@H](NC(=O)OCc2ccccc2)C(=O)Nc2cccc(CN)c2)CC1	> 99.5 µM	> 100 µM
O=C1COc2c(cccc2N2CCN(Cc3c[nH]c4ccccc34)CC2)N1	> 99.5 µM	> 100 µM
NCc1cccc(NC(=O)c2cc(NC(=O)OCc3ccccc3)cc(C(N)=O)c2)c1	> 99.5 µM	> 100 µM
NCCCc1ccccc1NC(=O)c1cc(Cl)cc(NC(=O)OCc2ccccc2)c1	> 99.5 µM	> 100 µM
NCc1cccc(NC(=O)c2cc(Cl)ccc2OC2CCCC2)c1	> 99.5 µM	> 100 µM
NCc1nc(CNC(=O)c2cc(Cl)cc(NC(=O)OCc3ccccc3)c2)cs1	> 99.5 µM	> 100 µM
NCc1cccc(CS(=O)(=O)c2cc(Cl)cc(NC(=O)OCc3ccccc3)c2)c1	> 99.5 µM	> 100 µM
CS(=O)(=O)Nc1ccc(Cl)cc1C(=O)Nc1cccc(CN)c1	> 99.5 µM	> 100 µM
O=C(Nc1cc(Cl)cc(C(=O)Nc2cccc([C@H]3CCNC3)c2)c1)OCc1ccccc1	33.3 µM and 58.3 µM and 41.4 µM	95.4 µM and > 100 µM
NCc1cccc(NC(=O)[C@H](NC(=O)OCc2ccccc2)C2CCN(Cc3ccccn3)CC2)c1	> 99.5 µM	> 100 µM
Cc1nccn1CCOc1cccc([C@H](NC(=O)OCc2ccccc2)C(=O)Nc2cccc(CN)c2)c1	> 99.5 µM	> 100 µM
O=C(O)c1cc(Cl)c(F)cc1NS(=O)(=O)c1ccc(Oc2ccccc2Cl)cc1	7.82 µM	11.2 µM and 8.35 µM and 16.5 µM and 10.2 µM and 9.1 µM and 8.36 µM and 12.3 µM and 5.27 µM and 5.73 µM
NCc1cccc(NC(=O)[C@H](NC(=O)OCc2ccccc2)c2cccc(OCc3ccncc3)c2)c1	> 99.5 µM	> 100 µM
NCc1cccc(NC(=O)[C@H](NC(=O)OCc2ccccc2)C2CCN(Cc3ccccc3)CC2)c1	> 99.5 µM	> 100 µM
CCN1CC[C@H](COc2cccc([C@H](NC(=O)OCc3ccccc3)C(=O)Nc3cccc(CN)c3)c2)C1	> 99.5 µM	> 100 µM
NCc1cccc(NC(=O)c2cc(Cl)cc(F)c2F)c1	> 99.5 µM	> 100 µM
Cn1cc(C(=O)N2CCC([C@H](NC(=O)OCc3ccccc3)C(=O)Nc3cccc(CN)c3)CC2)cn1	> 99.5 µM	> 100 µM
CC(C)CNC(=O)c1cc(Cl)c(F)cc1NS(=O)(=O)c1ccc(Oc2ccccc2Cl)cc1	6.13 µM	14.5 µM and 12.6 µM and 12.2 µM and 23.3 µM and 8.64 µM
NCc1cccc(NC(=O)[C@H](NC(=O)OCc2ccccc2)C2CCN(C(=O)c3ccco3)CC2)c1	> 99.5 µM	> 100 µM
NCc1cccc(NC(=O)c2cc(NC(=O)OCc3ccccc3)cc(C(F)(F)F)c2F)c1	> 99.5 µM	> 100 µM

Structure (SMILES)	IC50 (Genome polyprotein [1])	IC50 (Genome polyprotein [2])
NCc1cccc(NC(=O)c2cc3c(c(NC(=O)OCc4ccccc4)c2)OCC3)c1	> 99.5 µM	> 100 µM
NCc1cccc(NC(=O)[C@H](NC(=O)OCc2ccccc2)C2CCN(S(=O)(=O)c3cccnc3)CC2)c1	> 99.5 µM	> 100 µM
O=C(Nc1cc(Cl)cc(C(=O)NCc2n[nH]c3c2CNCC3)c1)OCc1ccccc1	> 99.5 µM	> 100 µM
CC(C)N1C(=O)C[C@H](C(=O)Nc2cccc(CN)c2)[C@H]1c1ccc(Cl)c(F)c1	> 99.5 µM	> 100 µM
NCc1cccc(NC(=O)c2cc(Cl)cc(NC(=O)OCc3ccccc3)c2)c1	78.2 µM and 61.5 µM	> 100 µM
c1cnc2[nH]cc(C3CCN(Cc4c[nH]c5ccncc45)CC3)c2c1	> 99.5 µM	> 100 µM
CN(C)Cc1cccc(NC(=O)[C@H](NC(=O)OCc2ccccc2)c2ccc(OCc3ccccc3)cc2)c1	> 99.5 µM	> 100 µM
NCc1cccc(NC(=O)[C@H](NC(=O)OCc2ccccc2)c2cccc(OC[C@H]3COCCO3)c2)c1	> 99.5 µM	> 100 µM
NCc1cccc(NC(=O)[C@H](NC(=O)OCc2ccccc2)C2CCN(C(=O)C3CCCCC3)CC2)c1	> 99.5 µM	> 100 µM
Cc1cc(-c2ccc([C@@H](NC(=O)OCc3ccccc3)C(=O)Nc3cccc(CN)c3)cc2)cs1	4.01 µM	30.5 µM and 16.5 µM and 28.3 µM and 18.6 µM and 11.2 µM and 15.5 µM
NCc1cccc(NC(=O)c2cc(Cl)cc3c2OCC3)c1	> 99.5 µM	> 100 µM
NCc1cccc(NC(=O)[C@H](NC(=O)OCc2ccccc2)C2CCN(C(=O)Cc3ccccc3)CC2)c1	> 99.5 µM	> 100 µM
C#Cc1cc(NC(=O)OCc2ccccc2)cc(C(=O)Nc2cccc(CN)c2)c1	81.7 µM	> 100 µM
c1nc(C2CCN(Cc3cc(C4CCOCC4)[nH]n3)CC2)cs1	> 99.5 µM	> 100 µM
COc1cc(NC(=O)OCc2ccccc2)cc(C(=O)Nc2cccc(CN)c2)c1OC	> 99.5 µM	> 100 µM
N#Cc1cccc2[nH]cc(CN3CCC(c4cscn4)CC3)c12	> 99.5 µM	> 100 µM
O=C1Nc2ncccc2C[C@H]1NCc1n[nH]c2ccccc12	> 99.5 µM	> 100 µM
NCc1cccc(NC(=O)[C@H](NC(=O)OCc2ccccc2)C2CCN(C(=O)c3ccccc3)CC2)c1	> 99.5 µM	> 100 µM
c1cncc(-c2cc(CN3CCC(c4cscn4)CC3)n[nH]2)c1	> 99.5 µM	> 100 µM
Cc1ncc(NC(=O)OCc2ccccc2)cc1C(=O)Nc1cccc(CN)c1	> 99.5 µM	> 100 µM
NCc1cn(CCNC(=O)c2cc(Cl)cc(NC(=O)OCc3ccccc3)c2)nn1	> 99.5 µM	> 100 µM
NCc1cccc(NC(=O)c2cc(Cl)ccc2NS(=O)(=O)c2ccccc2)c1	> 99.5 µM	> 100 µM
Cc1ocnc1COc1cccc([C@H](NC(=O)OCc2ccccc2)C(=O)Nc2cccc(CN)c2)c1	> 99.5 µM	> 100 µM
CCOCCS(=O)(=O)N1CCC([C@H](NC(=O)OCc2ccccc2)C(=O)Nc2cccc(CN)c2)CC1	> 99.5 µM	> 100 µM
N#Cc1cccc(N2CCN(Cc3c[nH]c4ccccc34)CC2)c1	> 99.5 µM	> 100 µM
COCCN1C(=O)C[C@H](C(=O)Nc2cccc(CN)c2)[C@H]1c1ccc(Cl)c(F)c1	> 99.5 µM	> 100 µM
